According to patent US8992982B2, “Formulation of indomethacin” (Iceutica Pty Ltd., priority 2009, dated 2015):

Experiments:
[1] = system: pain after surgical removal of impacted third molars; test: Phase 2 dental pain study: pain relief, 5-point categorical scale (TOTPAR, pain relief score, peak pain relief, time to peak pain relief); type: in vivo, human; conditions: for Pain relief score A Little (1), % / Pain relief score None (0), % / Pain relief score Some (2), % / Pain relief score A Lot (3), % / Pain relief score Complete (4), %: 400 mg; for TOTPAR-8, LS mean difference vs placebo: treatment - placebo
Protocol: This was a phase-2, multicenter, randomized, double-blind, single-dose, parallel-group, active- and placebo-controlled study to evaluate the efficacy and safety of Indomethacin Nanoformulation Capsules (20 mg and 40 mg) in subjects with postoperative dental pain.
On Day 1, eligible subjects underwent extraction of 2 or more third molars, at least 1 of which had to be a fully or partially bone-impacted mandibular molar. If only 2 molars were removed, then they had to be ipsilateral.
Subjects assessed their baseline pain intensity (VAS) before receiving study drug (predose, Time 0) and their pain intensity (VAS) and pain relief (5-point categorical scale) at 15, 30, and 45 minutes and 1, 1.5, 2, 3, 4, 5, 6, 7, and 8 hours after Time 0 and immediately before the first dose of rescue medication. The 2-stopwatch method was used to record the time to perceptible and time to meaningful pain relief, respectively. Acetaminophen (1000 mg) was permitted as the initial rescue medication. Subjects were encouraged to wait at least 60 minutes after receiving study drug before taking rescue medication. […] Other restrictions included the following: no alcohol use from 24 hours before surgery until discharge on Day 1; nothing by mouth (NPO) from midnight before surgery until 1 hour after surgery; clear liquids only from 1 hour after surgery until 1 hour after dosing; and advancement of diet 1 hour after dosing according to standard practice.
The primary efficacy endpoint was the sum of total pain relief (TOTPAR) over 0 to 8 hours (TOTPAR-8) after Time 0. The TOTPAR was calculated using the pain relief score (5-point categorical scale) at each follow-up time point weighted (multiplied) using the amount of time since the prior assessment.
(§1) The secondary efficacy endpoints were as follows: • TOTPAR over 0 to 4 hours (TOTPAR-4) after Time 0 • Visual Analogue Scale (VAS) pain intensity difference (VASPID) at each scheduled time point after Time 0 • Time to onset of analgesia (measured as time to perceptible pain relief confirmed by meaningful pain relief) • VAS pain intensity score at each scheduled time point • VAS summed pain intensity difference (VASSPID) over 0 to 4 hours (VASSPID-4) and over 0 to 8 hours (VASSPID-8) after Time 0 • Pain relief score at each scheduled time point after Time 0 • Peak pain relief • Time to peak pain relief • Time to first perceptible pain relief • Time to meaningful pain relief • Proportion of subjects using rescue medication • Time to first use of rescue medication (duration of analgesia) • Patient's global evaluation of study drug Safety:
The null hypothesis was that TOTPAR over 0 to 8 hours after Time 0 (TOTPAR-8) for placebo would be equal to TOTPAR-8 for 40-mg Indomethacin Nanoformulation Capsules. The null hypothesis was analyzed using analysis of covariance (ANCOVA) models, which included treatment effect and significant covariates. The effect of potential covariates, such as sex, baseline pain intensity, and surgical trauma rating, were assessed using appropriate ANCOVA models. The analysis was based on a 2-sided test at the significance level of 0.05.
The least squares (LS) mean and 95% confidence interval (CI) for each treatment regimen, the mean (LS mean) difference between the 2 treatments, and the associated P value and 95% CI for the mean difference were computed from the ANCOVA model. This analysis utilized primarily the ITT population, and sensitivity analysis utilized the PP population.
Other comparisons between the treatment regimens, including 20-mg Indomethacin Nanoformulation Capsules versus placebo and 400-mg celecoxib capsules versus placebo, were considered secondary but also utilized the ITT population. The primary efficacy variable was also summarized by site, but no P values or statistical tests for site were computed.
Each efficacy endpoint was summarized descriptively by treatment group. […]

[2] = system: pain after surgical removal of impacted third molars; test: Phase 2 dental pain study: patient's global evaluation of study drug; type: in vivo, human; conditions: 400 mg; ITT
Protocol: as §1
For ordinal secondary endpoints such as pain relief at each scheduled time point, peak pain relief, and global evaluation of study drug, descriptive summaries including the number and percentage of subjects within each category were provided for each treatment group. Nominal P values from Cochran-Mantel-Haenszel tests comparing the placebo group with other treatment groups were provided, but no formal statistical inferences were drawn on the basis of these tests.

**Q.** Which results are given for `Cc1ccc(-c2cc(C(F)(F)F)nn2-c2ccc(S(N)(=O)=O)cc2)cc1` [Celecoxib]?
**A.** Pain relief score A Little (1), % ([1]; 15 minutes, ITT): (21.6) %; Pain relief score None (0), % ([1]; 15 minutes, ITT): (74.5) %; Pain relief score Some (2), % ([1]; 15 minutes, ITT): (3.9) %; Pain relief score A Little (1), % ([1]; 30 minutes, ITT): (41.2) %; Pain relief score A Lot (3), % ([1]; 30 minutes, ITT): (3.9) %; Pain relief score None (0), % ([1]; 30 minutes, ITT): (51.0) %; Pain relief score Some (2), % ([1]; 30 minutes, ITT): (3.9) %; Pain relief score A Little (1), % ([1]; 45 minutes, ITT): (37.3) %; Pain relief score A Lot (3), % ([1]; 45 minutes, ITT): (13.7) %; Pain relief score Complete (4), % ([1]; 45 minutes, ITT): (2.0) %; Pain relief score None (0), % ([1]; 45 minutes, ITT): (27.5) %; Pain relief score Some (2), % ([1]; 45 minutes, ITT): (19.6) %; Pain relief score A Little (1), % ([1]; 1 hour, ITT): (31.4) %; Pain relief score A Lot (3), % ([1]; 1 hour, ITT): 25.5%; Pain relief score Complete (4), % ([1]; 1 hour, ITT): (3.9) %; Pain relief score None (0), % ([1]; 1 hour, ITT): (15.7) %; Pain relief score Some (2), % ([1]; 1 hour, ITT): (23.5) %; Pain relief score A Little (1), % ([1]; 2 hours, ITT): (13.7) %; Pain relief score A Lot (3), % ([1]; 2 hours, ITT): (49.0) %; Pain relief score Complete (4), % ([1]; 2 hours, ITT): (5.9) %; Pain relief score None (0), % ([1]; 2 hours, ITT): (17.6) %; Pain relief score Some (2), % ([1]; 2 hours, ITT): (13.7) %; Pain relief score A Little (1), % ([1]; 3 hours, ITT): (5.9) %; Pain relief score A Lot (3), % ([1]; 3 hours, ITT): (51.0) %; Pain relief score Complete (4), % ([1]; 3 hours, ITT): (5.9) %; Pain relief score None (0), % ([1]; 3 hours, ITT): (21.6) %; Pain relief score Some (2), % ([1]; 3 hours, ITT): (15.7) %; Pain relief score A Little (1), % ([1]; 4 hours, ITT): (7.8) %; Pain relief score A Lot (3), % ([1]; 4 hours, ITT): (49.0) %; Pain relief score Complete (4), % ([1]; 4 hours, ITT): (9.8) %; Pain relief score None (0), % ([1]; 4 hours, ITT): (27.5) %; Pain relief score Some (2), % ([1]; 4 hours, ITT): (5.9) %; Pain relief score A Little (1), % ([1]; 5 hours, ITT): (3.9) %; Pain relief score A Lot (3), % ([1]; 5 hours, ITT): (43.1) %; Pain relief score Complete (4), % ([1]; 5 hours, ITT): (11.8) %; Pain relief score None (0), % ([1]; 5 hours, ITT): (31.4) %; Pain relief score Some (2), % ([1]; 5 hours, ITT): (9.8) %; Pain relief score A Little (1), % ([1]; 6 hours, ITT): (2.0) %; Pain relief score A Lot (3), % ([1]; 6 hours, ITT): (37.3) %; Pain relief score Complete (4), % ([1]; 6 hours, ITT): (17.6) %; Pain relief score None (0), % ([1]; 6 hours, ITT): (37.3) %; Pain relief score Some (2), % ([1]; 6 hours, ITT): (5.9) %; Pain relief score A Lot (3), % ([1]; 7 hours, ITT): (43.1) %; Pain relief score Complete (4), % ([1]; 7 hours, ITT): (13.7) %; Pain relief score None (0), % ([1]; 7 hours, ITT): (41.2) %; Pain relief score Some (2), % ([1]; 7 hours, ITT): (2.0) %; Pain relief score A Lot (3), % ([1]; 8 hours, ITT): (41.2) %; Pain relief score Complete (4), % ([1]; 8 hours, ITT): (13.7) %; Pain relief score None (0), % ([1]; 8 hours, ITT): (41.2) %; Pain relief score Some (2), % ([1]; 8 hours, ITT): (3.9) %; Time to peak pain relief, Hazard ratio ([1]; Cox proportional hazards model, vs placebo, ITT): 1.8; Peak pain relief: A Little (1) ([1]; ITT): (11.8) %; Peak pain relief: A Lot (3) ([1]; ITT): (47.1) %; Peak pain relief: Complete (4) ([1]; ITT): (21.6) %; Peak pain relief: None (0) ([1]; ITT): (7.8) %; Peak pain relief: Some (2) ([1]; ITT): (11.8) %; Time to peak pain relief: subjects analyzed ([1]; ITT): (58.8) %; Time to peak pain relief: subjects censored ([1]; ITT): (41.2) %; TOTPAR-4, Mean ([1]; ITT population): 7.152; TOTPAR-4, Median ([1]; ITT population): 8.750; Time to peak pain relief, Mean ([1]; Kaplan-Meier estimate, ITT): 3.3 h; Time to peak pain relief, Q25 ([1]; Kaplan-Meier estimate, ITT): 1.50 h; Time to peak pain relief, Q50 ([1]; Kaplan-Meier estimate, ITT): 3.00 h; Time to peak pain relief, Q75 ([1]; Kaplan-Meier estimate, ITT): 5.00 h; TOTPAR-8, LS mean ([1]; Model 1 (primary): ANCOVA, baseline pain intensity as only covariate, ITT): 14.822; TOTPAR-8, LS mean difference vs placebo ([1]; Model 1 (primary), ITT): 11.803; TOTPAR-8, LS mean ([1]; Model 2: baseline pain intensity, gender and surgical trauma rating as covariates, ITT): 14.797; TOTPAR-8, LS mean difference vs placebo ([1]; Model 2, ITT): 11.864; TOTPAR-8, Median ([1]; Overall, ITT population): 19.250; TOTPAR-8, Mean ([1]; Overall, ITT population, single oral dose (celecoxib 400 mg)): 14.858; TOTPAR-8, Mean ([1]; Site 50048, ITT population): 15.524; TOTPAR-8, Median ([1]; Site 50048, ITT population): 20.500; TOTPAR-8, Mean ([1]; Site 50053, ITT population): 14.021; TOTPAR-8, Median ([1]; Site 50053, ITT population): 14.625; TOTPAR-8, Mean ([1]; Site 50054, ITT population): 14.639; TOTPAR-8, Median ([1]; Site 50054, ITT population): 20.750; Pain relief score A Little (1), % ([1]; […], ITT): (17.6) %; Pain relief score A Lot (3), % ([1]; […], ITT): (31.4) %; Pain relief score Complete (4), % ([1]; […], ITT): (3.9) %; Pain relief score None (0), % ([1]; […], ITT): (17.6) %; Pain relief score Some (2), % ([1]; […], ITT): (29.4) %; Time point from which pain relief scores were statistically significantly more favorable than placebo ([1]; onward after Time 0): ≥ 45 min; Patient's global evaluation of study drug: Excellent, % [2]: (15.7) %; Patient's global evaluation of study drug: Fair, % [2]: (17.6) %; Patient's global evaluation of study drug: Good, % [2]: (19.6) %; Patient's global evaluation of study drug: Poor, % [2]: (11.8) %; Patient's global evaluation of study drug: Very Good, % [2]: (35.3) %
